# Reference: patent publication US7268146B2, “Ring fused pyrazole derivatives as CRF antagonists” (Palo Alto LLC, priority 2001, dated 2007)
# Structures can show the parent of a compound that is named as a salt.
# How the values were obtained:
# hCRF1 = molecular target: T1, hCRF1 (Homo sapiens, UniProt P34998); test: CRF Receptor Binding Assay; conditions: CRF1 receptor binding affinity (table title); read-out: hCRF1 (pIC50) (converted)
# T1 construct: Celll membranes are prepared according the method of Dieterich and DeSouza (1996); endogenous in cells; host or cells: human IMR-32 neuroblastoma cells (membrane preparation)
# T1 sequence (P34998 24-415): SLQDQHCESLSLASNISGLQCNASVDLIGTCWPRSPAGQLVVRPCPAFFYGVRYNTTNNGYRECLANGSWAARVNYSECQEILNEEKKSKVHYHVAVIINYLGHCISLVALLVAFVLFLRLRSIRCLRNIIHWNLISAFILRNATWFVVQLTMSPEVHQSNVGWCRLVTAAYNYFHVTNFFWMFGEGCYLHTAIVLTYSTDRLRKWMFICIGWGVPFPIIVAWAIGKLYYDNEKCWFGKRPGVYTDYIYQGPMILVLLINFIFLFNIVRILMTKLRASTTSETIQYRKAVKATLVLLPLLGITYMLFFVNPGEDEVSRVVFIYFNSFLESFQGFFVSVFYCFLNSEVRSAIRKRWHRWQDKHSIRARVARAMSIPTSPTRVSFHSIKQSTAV
# Experimental: Human IMR-32 neuroblastoma cells are grown to 80% confluence in MEM medium containing 10% heat-inactivated FBS, 1 mM Sodium Pyruvate, and 0.1 mM nonessential amino acids. Celll membranes are prepared according the method of Dieterich and DeSouza (1996). The cells (˜5E+9) are resuspended in 10 volumes of wash buffer (5 mM Tris HCl, 10 mM MgCl2, 2 mM EGTA, pH 7.4 at RT), homogenized with a Polytron, and then centrifuged at 45,000 G for 20 min at 4° C. The membrane pellets are washed twice with wash buffer (45,000 G for 20 min at 4° C.) and then resuspended (50 mM Tris HCl, 10 mM MgCl2, 2 mM EGTA, pH 7.4 at RT). Protein concentration is determined using Pierce reagents and BSA as standard. Aliquots of 1-1.5 ml are stored at −80° C. until binding assay.
# The competition binding assay is performed in a final volume of 250 μl, which contains assay buffer (50 mM Tris-HCl, 10 mM MgCl2, 2 mM EGTA, 0.2% BSA, 0.1 mM bacitracin and 100 kIU/ml aprotinin pH 7.2 at R.T.), 0.05 nM [^125I]Tyr^0-ovine CRF (Du Pont New England Nuclear), 50 μg of membrane protein, and test compound at various concentrations. Non-specific binding is determined with 1 uM hCRF. Binding reactions are terminated after 2 hr incubation at 25° C. by filtering through 96-w GF/C filter plate using a Packard Harvester (Filtermate 196). The 96-w filter plate is pre-treated with 0.3% polyethyleneimine and pre-washed with washing buffer (50 mM Tris-HCl, 10 mM MgCl2, 2 mM EGTA, 0.2% BSA, pH 7.2 at 4° C.). Unbound radioactivity is removed by four rapid washes (0.8 ml/well) with wash buffer. The radioactivity is quantified using a Packard TopCount. Data are analyzed using non-linear iterative curve fitting to obtain IC50 and Hill slope values. PKi values are derived from pIC50 values (−log of IC50).
IC50 (hCRF1),melting point,Compound
776 nM,59 to 63 °C,"Cc1cc(C)c(N2CCCc3c2nn(C)c3-c2ccccc2C(F)(F)F)c(C)c1 [Example 13a, 2-Methyl-3-(2-trifluoromethylphenyl)-7-(2,4,6-trimethylphenyl)-4,5,6,7-tetrahydro-2H-pyrazolo[3,4-b]pyridine]"
12000 nM,–,"Cc1cc(C)c(N2CCCc3c2nn(C)c3CN2CCc3ccccc3C2)c(C)c1 [Example 11, 2-[2-Methyl-7-(2,4,6-trimethyl-phenyl)-4,5,6,7-tetrahydro-2H-pyrazolo[3,4-b]pyridin-3-ylmethyl]-1,2,3,4-tetrahydroisoquinolinedihydrochloride]"
11200 nM,175.9 to 178.4 °C,"CCCC(O)(c1cccs1)c1c2c(nn1C)N(c1c(C)cc(C)cc1C)CCC2 (stereo not drawn) [Example 5c, 1-[2-Methyl-7-(2,4,6-trimethylphenyl)-4,5,6,7-tetrahydro-2H-pyrazolo[3,4-b]pyridin-3-yl]-1-thiophen-2-ylbutan-1-ol]"
87.1 nM,91.5 to 92 °C,"CCCC(CCC)c1c2c(nn1C)N(c1c(C)cc(C)cc1C)CCC2 [Example 7b, 2-Methyl-3-(1-propylbutyl)-7-(2,4,6-trimethylphenyl)-4,5,6,7-tetrahydro-2H-pyrazolo[3,4-b]pyridine]"

# Continued, compound first:
Compound,IC50 (hCRF1),melting point
"CCCN(Cc1ccco1)c1c2c(nn1C)N(c1c(C)cc(C)cc1Cl)CCC2 [Example 9c, [7-(2-Chloro-4,6-dimethyl-phenyl)-2-methyl-4,5,6,7-tetrahydro-2H-pyrazolo[3,4-b]pyridin-3-yl]-furan-2-ylmethyl-propyl-aminetrifluoroacetic acid salt]",832 nM,–
"CCCC(CCC)Oc1c2c(nn1C)N(c1ccc(Cl)cc1Cl)CCC2 [Example 12b, 7-(2,4-Dichlorophenyl)-2-methyl-3-(1-propylbutoxy)-4,5,6,7-tetrahydro-2H-pyrazolo[3,4-b]pyridinehydrochloride]",27.5 nM,–
"Cc1cc(C)c(N2CCCc3c2nn(C)c3Br)c(Cl)c1 [Example 1, 3-Bromo-7-(2-chloro-4,6-dimethylphenyl)-2-methyl-4,5,6,7-tetrahydro-2H-pyrazolo[3,4-b]pyridine]",1070 nM,106 to 107 °C
"CC/C=C(\CCC)c1c2c(nn1C)N(c1ccc(Cl)cc1Cl)CCC2 [Example 6e, 7-(2,4-Dichlorophenyl)-2-methyl-3-(1-propylbut-1-enyl)-4,5,6,7-tetrahydro-2H-pyrazolo[3,4-b]pyridine]",234 nM,–
